Test results reported in US12466856B2, “Echinocandin analogues and preparation method therefor” (SHANGHAI SENHUI MEDICINE CO., LTD., priority 2019, dated 2025).
Where two headings read alike, the source gives them in different places.

Experiments:
[1] = test system: Candida albicans ATCC 90029; experiment: MIC assay (CLSI M27-A3), Candida albicans ATCC 90029; assay type: cell-based; conditions: Candida albicans, ATCC90029; first batch; 24 h, 35° C.; ≥50% growth inhibition; read-out: MIC, Candida albicans ATCC 90029
Protocol: (§1) After a test compound was serially diluted, an MIC (minimum inhibitory concentration) assay was performed on the standard Candida strain and an MEC (minimum effective concentration) assay on the standard Aspergillus strain. The MIC assay was performed according to the guidelines of the Clinical and Laboratory Standards Institute (CLSI M27-A3) and the MEC assay according to the guidelines of the Clinical and Laboratory Standards Institute (CLSI M38-A2).
(§2) The frozen strain was passaged at least twice, and a single colony was picked and resuspended in normal saline or sterile water in a tube. The suspension was vortexed and adjusted to 0.5 McF (1×10^6 to 5×10^6 CFU/mL) using a spectrophotometer at wavelength 530 nm. The suspension was 50-fold diluted with normal saline and then 20-fold diluted with 1×RPMI 1640 broth (1×10^3 to 5×10^3 CFU/mL). 10 μL of the suspension was applied to an SDA plate for colony counting, with a range from about 10 to 50 single colonies.
(§3) At this time, the bacterium concentration in each well should be 0.5×10^3 to 2.5×10^3 CFU/mL.
(§4) For echinocandin drugs, Aspergillus was incubated at 28° C. for 21-26 h, and then the MEC results were read.
(§5) Yeast-type fungi: A disposable sealing film was applied to the 96-well plate, and the mixture was well mixed by shaking. Observation was performed through a plate reader with the naked eye. Comparisons were made to the growth control, and the minimum compound concentration corresponding to ≥50% growth inhibition was defined as MIC. Pictures were taken and saved using an automatic plate reader.

[2] = test system: Candida glabrata ATCC 15126; experiment: MIC assay (CLSI M27-A3), Candida glabrata ATCC 15126; assay type: cell-based; conditions: Nakaseomyces glabratus, ATCC15126; first batch; 24 h, 35° C.; ≥50% growth inhibition; read-out: MIC, Candida glabrata ATCC 15126
Protocol: as §1, §2, §3, §4, §5

[3] = test system: Candida parapsilosis ATCC 22019; experiment: MIC assay (CLSI M27-A3), Candida parapsilosis ATCC 22019; assay type: cell-based; conditions: Lodderomyces parapsilosis, ATCC22019, 24 h, read-out: MIC, Candida parapsilosis ATCC 22019
Protocol: as §1, §2, §3, §4, §5

Candida krusei ATCC 6258 = experiment: MIC assay (CLSI M27-A3), Candida krusei ATCC 6258; assay type: cell-based; conditions: Pichia kudriavzevii, ATCC6258, 24 h, read-out: MIC, Candida krusei ATCC 6258
Protocol: as §1, §2, §3, §4, §5

[4] = test system: Meyerozyma guilliermondii ATCC 6260; experiment: MIC assay (CLSI M27-A3), Meyerozyma guilliermondii ATCC 6260; assay type: cell-based; conditions: Meyerozyma guilliermondii, ATCC6260; first batch; 24 h, 35° C.; read-out: MIC, Meyerozyma guilliermondii ATCC 6260
Protocol: as §1, §2, §3, §4, §5

[5] = test system: Candida tropicalis ATCC 750; experiment: MIC assay (CLSI M27-A3), Candida tropicalis ATCC 750; assay type: cell-based; conditions: Candida tropicalis, ATCC750; first batch; 24 h, 35° C.; read-out: MIC, Candida tropicalis ATCC 750
Protocol: as §1, §2, §3, §4, §5

[6] = test system: Aspergillus flavus ATCC 28539; experiment: MEC assay (CLSI M38-A2), Aspergillus flavus ATCC 28539; assay type: cell-based; conditions: first batch; 28° C., 21-26 h
Protocol: The MIC assay was performed according to the guidelines of the Clinical and Laboratory Standards Institute (CLSI M27-A3) and the MEC assay according to the guidelines of the Clinical and Laboratory Standards Institute (CLSI M38-A2).
Colonies on the plate were covered with about 1 mL of 0.85% normal saline or sterile water (polysorbate 20 was added at a final concentration of 0.1%-0.01%). […] The homogeneous upper layer of the suspension was transferred to a new sterile tube, which was then sealed and vortexed for 15 s (be careful as the suspension may produce an aerosol when the cover is removed). The concentration of the suspension was adjusted until an OD value of 0.09-0.13 was achieved using a spectrophotometer at 530 nm. […] 100 μL of sample was added to each well of the 96-well plate within 2 h after dilution (the final spore concentration in the susceptibility testing plate was at 0.4×10^4 to 5×10^4 CFU/mL).
Aspergillus: For echinocandin drugs, comparisons were made to the growth control under a plate reader, and the minimum drug concentration that could cause the hyphae to form small, round, compact hyphal particles was defined as MEC. For accurate determination of MEC values, the plate must not be vortexed before reading.

[7] = test system: Candida albicans ATCC 90028; experiment: MIC assay (CLSI M27-A3), Candida albicans ATCC 90028; assay type: cell-based; conditions: Candida albicans, ATCC90028, second batch
Protocol: as §1, §2
At this time, the bacterium concentration in each well should be 0.5×10^3 to 2.5×10^3 CFU/mL. […]
as §5

[8] = test system: Candida albicans ATCC 44858; experiment: MIC assay (CLSI M27-A3), Candida albicans ATCC 44858; assay type: cell-based; conditions: Candida albicans, ATCC44858; second batch; read-out: MIC, Candida albicans ATCC 44858
Protocol: as §1, §2, §3, §4, §5

[9] = test system: Candida glabrata ATCC 36583; experiment: MIC assay (CLSI M27-A3), Candida glabrata ATCC 36583; assay type: cell-based; conditions: Nakaseomyces glabratus, ATCC36583; second batch; read-out: MIC, Candida glabrata ATCC 36583
Protocol: as §1, §2, §3, §4, §5

[10] = test system: Candida albicans (azole drug-resistant strain) R357; experiment: MIC assay (CLSI M27-A3), Candida albicans azole drug-resistant strain R357; assay type: cell-based; conditions: Candida albicans; second batch; read-out: MIC, Candida albicans (azole drug-resistant strain) R357
Protocol: as §1, §2, §3, §4, §5

[11] = test system: Candida albicans (azole drug-resistant strain) R358; experiment: MIC assay (CLSI M27-A3), Candida albicans azole drug-resistant strain R358; assay type: cell-based; conditions: Candida albicans; second batch; read-out: MIC, Candida albicans (azole drug-resistant strain) R358
Protocol: as §1, §2, §3, §4, §5

[12] = test system: Candida tropicalis (amphotericin-resistant strain) ATCC 200956; experiment: microbe, parasite or virus in culture; assay type: cell-based; conditions: Candida tropicalis, ATCC200956, read-out: MIC, Candida tropicalis (amphotericin-resistant strain) ATCC 200956
Protocol: as §1, §2, §3, §4, §5

[13] = Plasma histamine assay after single intravenous injection in SD rats; assay type: in vivo; conditions: same dose (10 mg/kg), single intravenous injection, versus rezafungin acetate
Protocol: (§6) 12 SD rats were divided into 2 groups of 6 (half are male and half female). […] The body weights were measured once before administration. Administration was performed by single intravenous injection for 20 min per animal. PK measurement was performed once before administration and 5 min, 30 min, 1 h, 4 h, 8 h, 24 h, 48 h, 72 h and 96 h after administration. A histamine assay was performed once before administration and 30 min, 4 h, 8 h and 24 h after administration.

[14] = Pharmacokinetic study after single intravenous injection in SD rats; assay type: in vivo; conditions: 10 mg/kg single intravenous injection
Protocol: as §6

SMILES | MIC [1] [µg/mL] | MIC [2] [µg/mL] | MIC [3] [µg/mL] | MIC (Candida krusei ATCC 6258) [µg/mL] | MIC [4] [µg/mL] | MIC [5] [µg/mL] | MEC, Aspergillus flavus ATCC 28539 [6] [µg/mL] | MIC ([7]; 24 h, 35° C., read-out: MIC, Candida albicans ATCC 90028) [µg/mL] | MIC ([7]; + 50% human serum, read-out: MIC, Candida albicans + 50% human serum ATCC 90028) [µg/mL] | MIC [8] [µg/mL] | MIC [9] [µg/mL] | MIC [10] [µg/mL] | MIC [11] [µg/mL] | MIC [12] [µg/mL] | ability to induce increases in the histamine level in rats [13] | MRTIV ([14]; female SD rats) [h] | MRTIV ([14]; male SD rats) [h]
CCCCCOc1ccc(-c2ccc(-c3ccc(C(=O)N[C@H]4C[C@@H](O)[C@@H](OCC[N+]5(C)CCCCC5)NC(=O)[C@@H]5[C@@H](O)[C@@H](C)CN5C(=O)[C@H]([C@@H](C)O)NC(=O)[C@H]([C@H](O)[C@@H](O)c5ccc(O)cc5)NC(=O)[C@@H]5C[C@@H](O)CN5C(=O)[C@H]([C@@H](C)O)NC4=O)cc3)cc2)cc1 [Example 10] | 0.25 | 0.5 | 2 | 0.5 | 4 | 0.031 | 0.031 |  |  |  |  |  |  |  |  |  | 
CCCCCOc1ccc(-c2ccc(-c3ccc(C(=O)N[C@H]4C[C@@H](O)[C@@H](OCC[N+]5(C)CCCC5)NC(=O)[C@@H]5[C@@H](O)[C@@H](C)CN5C(=O)[C@H]([C@@H](C)O)NC(=O)[C@H]([C@H](O)[C@@H](O)c5ccc(O)cc5)NC(=O)[C@@H]5C[C@@H](O)CN5C(=O)[C@H]([C@@H](C)O)NC4=O)cc3)cc2)cc1 [Example 5] | 0.125 | 0.125 | 2 | 0.125 | 4 | 0.016 | 0.031 |  |  |  |  |  |  |  |  |  | 
CCCCCOc1ccc(-c2ccc(-c3ccc(C(=O)N[C@H]4C[C@@H](O)[C@@H](OC[C@H]5CCC[N+]5(C)C)NC(=O)[C@@H]5[C@@H](O)[C@@H](C)CN5C(=O)[C@H]([C@@H](C)O)NC(=O)[C@H]([C@H](O)[C@@H](O)c5ccc(O)cc5)NC(=O)[C@@H]5C[C@@H](O)CN5C(=O)[C@H]([C@@H](C)O)NC4=O)cc3)cc2)cc1 [Example 13] | 0.031 |  | 1 | 0.047 | 1 | 0.016 |  | 0.25 | 0.25 | 0.25 | 0.5 | 0.5 | 0.25 | 0.25 | significantly lower than that of rezafungin acetate | 34.6 | 37.1
